# Laboratory results from article PMC11876601 (Molecular Systems Biology, 2025).
# Tests used:
# PRKAA1 = tested on: PRKAA1; parameters: method as in Klaeger et al. (2017); settings: lysate 4 cell line mix (Colo205, K-562, MV-4-11, and SK-N-BE(2)), Kinobeads y, ref Klaeger et al. (2017); cited from earlier work
# RPS6KA6 = tested on: RPS6KA6; parameters: method as in Klaeger et al. (2017); settings: lysate 4 cell line mix (Colo205, K-562, MV-4-11, and SK-N-BE(2)), Kinobeads y, ref Klaeger et al. (2017); cited from earlier work
# PRKCA = tested on: PRKCA; parameters: method as in Klaeger et al. (2017); settings: lysate 4 cell line mix (Colo205, K-562, MV-4-11, and SK-N-BE(2)), Kinobeads y, ref Klaeger et al. (2017); cited from earlier work
# BTK = tested on: BTK; parameters: method as in Klaeger et al. (2017); settings: lysate 4 cell line mix (Colo205, K-562, MV-4-11, and SK-N-BE(2)), Kinobeads y, ref Klaeger et al. (2017); cited from earlier work
# MAP4K2 = tested on: MAP4K2; parameters: method as in Klaeger et al. (2017); settings: MAP4K2, 4 cell line mix lysate, Kinobeads y, ref Klaeger et al. (2017); cited from earlier work
# ERN2 = tested on: ERN2; parameters: method as in Klaeger et al. (2017); settings: ERN2, 4 cell line mix lysate, Kinobeads y, ref Klaeger et al. (2017); cited from earlier work
# CDK2 = tested on: CDK2; parameters: method as in Klaeger et al. (2017); settings: CDK2, 4 cell line mix lysate, Kinobeads y, ref Klaeger et al. (2017); cited from earlier work
# HuP-T4 = experiment: cells; parameters: Viability of PDAC cell lines, ATPlite luminescence, 11-dose single-agent curve fit; settings: Homo sapiens, HuP-T4, 72 h, read-out: EC50 [nM]
# In short: (§1)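 cells (1000 to 5000 per well) seeded 24 h before drug addition in a screen at 0.2% final DMSO. Controls were drug-free wells (negative) and 5 µM staurosporine (positive).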
# PSN-1 = experiment: cells; parameters: Viability of PDAC cell lines, ATPlite luminescence, 11-dose single-agent curve fit; settings: Homo sapiens, PSN1, 72 h, read-out: EC50 [nM]
# In short: as §1
# HPDE = experiment: cells; parameters: Viability of PDAC cell lines, ATPlite luminescence, 11-dose single-agent curve fit; settings: HPDE, 72 h, read-out: EC50 [nM]
# In short: as §1
# PANC-1 = experiment: cells; parameters: Viability of PDAC cell lines, ATPlite luminescence, 11-dose single-agent curve fit; settings: Homo sapiens, PANC-1, 72 h, read-out: EC50 [nM]
# In short: as §1
# Capan-1 = experiment: cells; parameters: Viability of PDAC cell lines, ATPlite luminescence, 11-dose single-agent curve fit; settings: Homo sapiens, CAPAN-1, 72 h, read-out: EC50 [nM]
# In short: as §1
# Colo-357 = experiment: cells; parameters: Viability of PDAC cell lines, ATPlite luminescence, 11-dose single-agent curve fit; settings: Homo sapiens, COLO357, 72 h, read-out: EC50 [nM]
# In short: as §1
# PHKG2 = settings: PHKG2, 5 cell line mix lysate, Kinobeads ε, ref Reinecke et al. (2023), cited from earlier work
# NUAK1 = tested on: NUAK1; parameters: method as in Reinecke et al. (2023); settings: NUAK1, 5 cell line mix lysate, Kinobeads ε, ref Reinecke et al. (2023); cited from earlier work
# CLK4 = tested on: CLK4; parameters: method as in Reinecke et al. (2023); settings: CLK4, 5 cell line mix lysate, Kinobeads ε, ref Reinecke et al. (2023), cited from earlier work
# PTK2 = tested on: PTK2; parameters: method as in Reinecke et al. (2023); settings: PTK2, 5 cell line mix lysate, Kinobeads ε, ref Reinecke et al. (2023), cited from earlier work
# AZI2 = settings: AZI2, 5 cell line mix lysate, Kinobeads ε, ref Reinecke et al. (2023), cited from earlier work
# PRKCD = molecular target: PRKCD; parameters: method as in Reinecke et al. (2023); settings: 5 cell line mix lysate, Kinobeads ε, ref Reinecke et al. (2023), cited from earlier work
# PLK1 = tested on: PLK1; parameters: method as in Reinecke et al. (2023); settings: PLK1, 5 cell line mix lysate, Kinobeads ε, ref Reinecke et al. (2023), cited from earlier work
# GAK = settings: 5 cell line mix lysate, Kinobeads ε, ref Reinecke et al. (2023), cited from earlier work
# INCENP = molecular target: INCENP; parameters: method as in Reinecke et al. (2023); settings: 5 cell line mix lysate, Kinobeads ε, ref Reinecke et al. (2023), cited from earlier work
# MAP3K11 = settings: MAP3K11, 5 cell line mix lysate, Kinobeads ε, ref Reinecke et al. (2023), cited from earlier work
structure (smiles),measurement,setting,value
C[C@]12O[C@H](C[C@]1(O)CO)n1c3ccccc3c3c4c(c5c6ccccc6n2c5c31)CNC4=O [Lestaurtinib],EC50,PRKAA1,1320 nM
same,EC50,RPS6KA6,2330 nM
same,EC50,PRKCA,2470 nM
same,EC50,ERN2,373 nM
CCN1CCN(Cc2ccc(Nc3ncc(F)c(-c4cc(F)c5nc(C)n(C(C)C)c5c4)n3)nc2)CC1 [Abemaciclib],EC50,HuP-T4,7.93 nM
same,EC50,PSN-1,151 nM
same,EC50,HPDE,> 10000 nM
same,EC50,PANC-1,5540 nM
same,EC50,Capan-1,245 nM
same,EC50,Colo-357,160 nM
COc1cc(N2CCC(N3CCN(C)CC3)CC2)ccc1Nc1ncc(Cl)c(Nc2ccccc2P(C)(C)=O)n1 [Brigatinib],EC50,PHKG2,199 nM
same,pKDapp,PHKG2,6.71
same,Kd,PHKG2; read-out: KDapp,193 nM
same,EC50,NUAK1,532 nM
same,EC50,CLK4,49.2 nM
same,pKDapp,CLK4,7.38
same,Kd,CLK4; read-out: KDapp,41.6 nM
same,EC50,PTK2,12.6 nM
same,pKDapp,PTK2,8.29
same,Kd,PTK2; read-out: KDapp,5.15 nM
same,EC50,AZI2,1120 nM
same,pKDapp,AZI2,6.10
same,Kd,AZI2; read-out: KDapp,789 nM
same,Kd,PRKCD; read-out: KDapp,24500 nM
same,EC50,PRKCD,25800 nM
same,pKDapp,PRKCD,4.61
same,EC50,PLK1,1100 nM
same,pKDapp,PLK1,5.99
same,Kd,PLK1; read-out: KDapp,1010 nM
same,Kd,GAK; read-out: KDapp,5.8 nM
same,EC50,GAK,10.3 nM
same,pKDapp,GAK,8.24
same,Kd,INCENP; read-out: KDapp,1030 nM
same,EC50,INCENP,1160 nM
same,pKDapp,INCENP,5.99
same,EC50,MAP3K11,3200 nM
same,pKDapp,MAP3K11,5.65
same,Kd,MAP3K11; read-out: KDapp,2230 nM
